In patent publication US20260116910A1, “POLYCYCLIC COMPOUNDS AND METHODS THEREOF” (HEPAITECH (BEIJING) BIOPHARMA TECHNOLOGY CO., LTD., priority 2021, published 2026):

Tests used:
[1] = molecular target: T1, human FXR (NR1H4) (Homo sapiens, UniProt Q96RI1); experiment: Human FXR (NR1H4) agonist assessment, FXRE-NanoLuc reporter in HEK293T cells; type: cell-based; details: FXR activation, HEK293T FXRE-NanoLuc reporter, 24 hr; for EC50: read-out: EC50
T1 sequence (Q96RI1 1-476 isoform Q96RI1-1): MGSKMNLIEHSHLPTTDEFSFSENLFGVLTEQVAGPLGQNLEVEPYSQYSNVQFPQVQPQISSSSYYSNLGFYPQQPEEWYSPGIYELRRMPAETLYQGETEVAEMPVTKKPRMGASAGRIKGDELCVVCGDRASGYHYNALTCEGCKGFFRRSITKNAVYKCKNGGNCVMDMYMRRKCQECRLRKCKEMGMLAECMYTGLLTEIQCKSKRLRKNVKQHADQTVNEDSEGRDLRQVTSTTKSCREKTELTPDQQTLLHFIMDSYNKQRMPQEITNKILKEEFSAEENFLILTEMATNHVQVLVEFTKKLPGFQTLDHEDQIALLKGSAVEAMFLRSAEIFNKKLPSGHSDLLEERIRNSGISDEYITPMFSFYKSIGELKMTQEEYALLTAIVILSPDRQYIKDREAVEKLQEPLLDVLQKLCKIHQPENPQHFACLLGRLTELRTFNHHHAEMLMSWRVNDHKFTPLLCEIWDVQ
Method in brief: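 HEK293T cells stably expressing human FXR with an FXRE-NanoLuc reporter were treated with compounds for 24 hr at 37 °C, with 0.01% DMSO as negative control. Medium was read for luminescence after 5 min with coelenterazine. EC50 was fitted by sigmoid to concentration-response data.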

[2] = molecular target: MRGPRX4 (Homo sapiens, UniProt Q96LA9); experiment: MRGPRX4 activation, Fluo-8 Ca2+ FLIPR assay in HEK293T cells stably expressing MRGPRX4; type: cell-based; set-up: key to MRGPRX4 activation, Average / MRGPRX4 activation, Ave.: fluorescence change dF/F0; details: for EC50: MRGPRX4 activation, Ca2+ fluorescence, no activation in tested range reported as III, read-out: Activity (EC50 μM)
Sequence of MRGPRX4 (Q96LA9 whole entry): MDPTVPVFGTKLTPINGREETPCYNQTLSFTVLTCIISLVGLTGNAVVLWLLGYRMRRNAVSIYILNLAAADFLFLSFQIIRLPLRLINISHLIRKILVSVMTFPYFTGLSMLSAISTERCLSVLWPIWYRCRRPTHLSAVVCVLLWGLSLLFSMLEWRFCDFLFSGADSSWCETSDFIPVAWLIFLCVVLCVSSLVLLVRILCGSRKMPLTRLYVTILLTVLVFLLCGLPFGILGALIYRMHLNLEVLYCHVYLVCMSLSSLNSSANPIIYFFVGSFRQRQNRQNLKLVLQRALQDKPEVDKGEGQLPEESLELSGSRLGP
Method in brief: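 Cells seeded overnight to >95% confluence, loaded 40-60 min at room temperature with 2 μM Fluo-8 AM, then kept in HHBS. Baseline read 30 s, compound added, signal followed 150 s more.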

SMILES | Efficacy (maximum measured induction of NanoLuc, normalized to CDCA set as 100%) [1] | EC50 [1] [µM] | MRGPRX4 activation, fluorescence change (dF/F0), Average ([2]; Conc. (Log[M]) −4.5) | EC50 [2] [µM] | MRGPRX4 activation, fluorescence change (dF/F0), Average ([2]; Conc. (Log[M]) −4) | MRGPRX4 activation, fluorescence change (dF/F0), Average ([2]; Conc. (Log[M]) −5) | MRGPRX4 activation, fluorescence change (dF/F0), Average ([2]; Conc. (Log[M]) −5.5) | MRGPRX4 activation, fluorescence change (dF/F0), Average ([2]; Conc. (Log[M]) −6) | MRGPRX4 activation, fluorescence change (dF/F0), Average ([2]; Conc. (Log[M]) −7) | MRGPRX4 activation, Average ([2]; E3-9, Conc. (Log[M]) −4.0) | MRGPRX4 activation, Average ([2]; E3-9, Conc. (Log[M]) −4.5) | MRGPRX4 activation, Average ([2]; E3-9, Conc. (Log[M]) −5.0) | MRGPRX4 activation, Average ([2]; E3-9, Conc. (Log[M]) −5.4) | MRGPRX4 activation, Average ([2]; E3-9, Conc. (Log[M]) −5.9) | MRGPRX4 activation, Average ([2]; E3-9, Conc. (Log[M]) −6.4) | MRGPRX4 activation, Average ([2]; E3-9, Conc. (Log[M]) −6.9) | MRGPRX4 activation, Average ([2]; E3-9, Conc. (Log[M]) −7.3) | MRGPRX4 activation, Average ([2]; E3-9, Conc. (Log[M]) −7.8) | MRGPRX4 activation, Average ([2]; E3-9, Conc. (Log[M]) −8.3) | further results
CC[C@H]1[C@@H](O)[C@@H]2[C@H](CC[C@]3(C)[C@@H]([C@H](C)CCNC(=O)NS(=O)(=O)c4ccc(C5(CO)CCCC5)cc4)CC[C@@H]23)[C@@]2(C)CCCC[C@@H]12 [5-21] | C (100%<efficacy <=300%) | < 1 | 0.016 | > 100 | – | – | – | – | – | – | – | – | – | – | – | – | – | – | – | MRGPRX4 activation, fluorescence change (dF/F0), Average ([2]; Conc. (Log[M]) −4.0): 0.018; MRGPRX4 activation, fluorescence change (dF/F0), Average ([2]; Conc. (Log[M]) −5.0): 0.020; MRGPRX4 activation, fluorescence change (dF/F0), Average ([2]; Conc. (Log[M]) −5.4): 0.018; MRGPRX4 activation, fluorescence change (dF/F0), Average ([2]; Conc. (Log[M]) −5.9): 0.018; MRGPRX4 activation, fluorescence change (dF/F0), Average ([2]; Conc. (Log[M]) −6.4): 0.016; MRGPRX4 activation, fluorescence change (dF/F0), Average ([2]; Conc. (Log[M]) −6.9): 0.018; MRGPRX4 activation, fluorescence change (dF/F0), Average ([2]; Conc. (Log[M]) −7.3): 0.016; MRGPRX4 activation, fluorescence change (dF/F0), Average ([2]; Conc. (Log[M]) −7.8): 0.020; MRGPRX4 activation, fluorescence change (dF/F0), Average ([2]; Conc. (Log[M]) −8.3): 0.018
C[C@H](CCC(C)(C)O)[C@H]1CC[C@H]2[C@@H]3CC[C@@H]4CCCC[C@]4(C)[C@H]3CC[C@]12C [2-3] | C (100%<efficacy <=300%) | 1 to 10 | 0.027 | > 100 | 0.074 | −0.036 | −0.031 | −0.031 | −0.008 | – | – | – | – | – | – | – | – | – | – | MRGPRX4 activation, fluorescence change (dF/F0), Average ([2]; Conc. (Log[M]) −8): −0.023; MRGPRX4 activation, fluorescence change (dF/F0), Average ([2]; Conc. (Log[M]) −9): −0.017
CC[C@H]1[C@@H](O)[C@@H]2[C@H](CC[C@]3(C)[C@@H]([C@H](C)CNC(=O)NS(=O)(=O)c4ccc(C(C)(C)CF)cc4)CC[C@@H]23)[C@@]2(C)CCCC[C@@H]12 [20-1] | A (efficacy >400%) | < 1 | – | > 100 | – | – | – | – | – | 0.018 | 0.016 | 0.019 | 0.019 | 0.021 | – | – | – | – | – | –
CC[C@H]1[C@@H](O)[C@@H]2[C@H](CC[C@]3(C)[C@@H]([C@H](C)CCNC(=O)NS(=O)(=O)c4cc(F)cc(F)c4)CC[C@@H]23)[C@@]2(C)CCC(F)(F)C[C@@H]12 [10-3] | C (100%<efficacy <=300%) | < 1 | – | > 100 | – | – | – | – | – | 0.010 | 0.004 | 0.014 | 0.016 | 0.023 | 0.018 | 0.023 | 0.021 | 0.012 | 0.018 | –
CC[C@H]1[C@@H](O)[C@@H]2[C@H](CC[C@]3(C)[C@@H]([C@H](C)CCNC(=O)NS(=O)(=O)c4ccc(C)cc4)CC[C@@H]23)[C@@]2(C)CCCC[C@@H]12 [5-8] | C (100%<efficacy <=300%) | < 1 | 0.037 | > 100 | 0.073 | 0.023 | 0.017 | 0.020 | 0.023 | – | – | – | – | – | – | – | – | – | – | –
CC[C@H]1[C@@H](O)[C@@H]2[C@H](CC[C@]3(C)[C@@H]([C@H](C)CCNS(=O)(=O)CC(C)C)CC[C@@H]23)[C@@]2(C)CCCC[C@@H]12 [6-4] | C (100%<efficacy <=300%) | > 10 | – | > 100 | – | – | – | – | – | 0.027 | 0.011 | 0.011 | 0.018 | 0.016 | 0.011 | 0.018 | 0.018 | 0.020 | 0.018 | –
CC[C@H]1[C@@H](O)[C@@H]2[C@H](CC[C@]3(C)[C@@H]([C@H](C)CCNC(=O)NS(=O)(=O)c4cc(F)ccc4F)CC[C@@H]23)[C@@]2(C)CC[C@H](F)C[C@@H]12 [9-2] | B (300%<efficacy <=400%) | < 1 | 0.162 | 50 to 100 | 0.655 | 0.011 | −0.068 | −0.030 | −0.029 | 0.035 | 0.001 | 0.002 | 0.019 | 0.018 | 0.018 | 0.014 | 0.019 | 0.016 | 0.019 | MRGPRX4 activation, fluorescence change (dF/F0), Average ([2]; Conc. (Log[M]) −8): −0.035; MRGPRX4 activation, fluorescence change (dF/F0), Average ([2]; Conc. (Log[M]) −9): −0.072
CC[C@H]1[C@@H](O)[C@@H]2[C@H](CC[C@]3(C)[C@@H]([C@H](C)CCNC(=O)NS(=O)(=O)Cc4ccccc4)CC[C@@H]23)[C@@]2(C)CCCC[C@@H]12 [5-13] | C (100%<efficacy <=300%) | < 1 | – | > 100 | – | – | – | – | – | – | – | – | – | – | – | – | – | – | – | MRGPRX4 activation, Average ([2]; E3-6-2, 1st of 6 concentration columns (head not in rows shown)): 0.060; MRGPRX4 activation, Average ([2]; E3-6-2, 3rd of 6 concentration columns (head not in rows shown)): 0.030; MRGPRX4 activation, Average ([2]; E3-6-2, 6th of 6 concentration columns (head not in rows shown)): 0.027; MRGPRX4 activation, Average ([2]; E3-6-2, concentration not given): 0.017
CC[C@H]1[C@@H](O)[C@@H]2[C@H](CC[C@]3(C)[C@@H]([C@H](C)CCNC(=O)NS(=O)(=O)c4ccc(C(C)(C)CN)cc4)CC[C@@H]23)[C@@]2(C)CCCC[C@@H]12 [5-18] | B (300%<efficacy <=400%) | < 1 | 0.008 | > 100 | – | – | – | – | – | – | – | – | – | – | – | – | – | – | – | MRGPRX4 activation, fluorescence change (dF/F0), Average ([2]; Conc. (Log[M]) −4.0): 0.018; MRGPRX4 activation, fluorescence change (dF/F0), Average ([2]; Conc. (Log[M]) −5.0): 0.021; MRGPRX4 activation, fluorescence change (dF/F0), Average ([2]; Conc. (Log[M]) −5.4): 0.021; MRGPRX4 activation, fluorescence change (dF/F0), Average ([2]; Conc. (Log[M]) −5.9): 0.021; MRGPRX4 activation, fluorescence change (dF/F0), Average ([2]; Conc. (Log[M]) −6.4): 0.021; MRGPRX4 activation, fluorescence change (dF/F0), Average ([2]; Conc. (Log[M]) −6.9): 0.011; MRGPRX4 activation, fluorescence change (dF/F0), Average ([2]; Conc. (Log[M]) −7.3): 0.018; MRGPRX4 activation, fluorescence change (dF/F0), Average ([2]; Conc. (Log[M]) −7.8): 0.020; MRGPRX4 activation, fluorescence change (dF/F0), Average ([2]; Conc. (Log[M]) −8.3): 0.013
CC[C@H]1[C@@H](OC(=O)c2cccc(I)c2)[C@@H]2[C@H](CC[C@]3(C)C([C@H](C)CCC(=O)OC)=CC[C@@H]23)[C@@]2(C)CCCC[C@@H]12 [3-1] | C (100%<efficacy <=300%) | 1 to 10 | 0.004 | > 100 | 0.008 | −0.027 | −0.004 | −0.017 | 0.005 | – | – | – | – | – | – | – | – | – | – | MRGPRX4 activation, fluorescence change (dF/F0), Average ([2]; Conc. (Log[M]) −8): 0.001; MRGPRX4 activation, fluorescence change (dF/F0), Average ([2]; Conc. (Log[M]) −9): −0.001
CC[C@H]1[C@@H](O)[C@@H]2[C@H](CC[C@]3(C)[C@@H]([C@H](C)CCNC(=O)NS(=O)(=O)c4cccs4)CC[C@@H]23)[C@@]2(C)CC[C@H](F)C[C@@H]12 [9-4] | C (100%<efficacy <=300%) | < 1 | – | > 100 | – | – | – | – | – | −0.003 | 0.004 | 0.014 | 0.019 | 0.019 | 0.018 | 0.019 | 0.021 | 0.018 | 0.019 | –
